Numbers after ± are expanded uncertainties.
Conditions: Crystal; visual observation

## CCCCCCCCCCCCCCCC(=O)O [hexadecanoic acid]
  Normal melting temperature: 62.7 ± 0.4 °C
